# Experimental data published in patent publication US20240024403A1, “Compositions and Methods for Managing Weight” (Unigen, Inc., priority 2012, published 2024).
# Values joined by “and” are separate entries in the source; they are usually repeats but may differ in a detail not shown here. Equal entries are not always repeated. “Also recorded” adds a separate entry of the source.
# Columns and labels:
# [1] = High fat diet induced obesity (DIO) rat model; format: in vivo, Spraue-Dawley rats; design: NASH (sum) / NSAH (sum): scale not given here; Epididymal fatty tissue weight / Retroperitoneal fatty tissue weight / Total Fat / Epididymal Fat, absolute weight / Retroperitoneal Fat, absolute weight: unit not given here
# Method: Male Spraue-Dawley rats, age 4-6 weeks (OrientBio, Inc.; Seongnam, Korea) were housed individually in Polycarbonate cages in a room with a 12 hr:12 hr light-dark cycle and an ambient temperature of 24° C. All the rats were fed a commercial chow diet for 1 week after arrival in the animal facility. Rats were then divided into normal and obesity groups and fed with normal diet (ND) and high fat diets (HFD) respectively. The HFD group was divided into multiple treatment groups: a high fat diet vehicle group (HFD), an orlistat (purchased as OTC drug Alli®) positive control treatment group (ORI, 80 mg/kg of animal weight, 2 times/day). In some examples, sibutramine was used as a positive control (SIB, 3 mg/kg for rat studies and […] for mice studies).
# Body weight was measured once or twice per week and feed intake was measured twice per week. Body weight gain was determined for each study group by measurement of the body weight difference for each study group between each successive week of the study. At the end of the experimental period, following a 12-h fasting period, the animals were anesthetized with ether, and blood was drawn from the abdominal vein. Liver and kidney and adipose tissues (epididymal, retroperitoneal, perirenal adipose tissues) were removed from each animal, rinsed with physiological saline, and weighted. Serum concentrations of glucose, total cholesterol and LDL-cholesterol were determined using automatic analyzer (INTEGRA 400, Roche, Germany). Statistical significance of test results was performed by Student's t-test.
# ghrelin = assay: Plasma active ghrelin level in DIO mice (ELISA); format: in vivo
# Method: (§1) Obese mice were treated with various three component compositions to test the anti-obesity and appetite effects of such compositions. Three component Composition 1 (Magnolia:Morus:Yerba Mate) produced according to the Example 38, three component Composition 2 (Magnolia:Morus:Mutamba) produced according to the Example 42, three component Composition 3 (Morus: Rosemary:Yerba Mate) produced according to the Example 39, and three component Composition 9 (Morus:Rosemary:Areca) produced according to the Example 41, were each separately administrated orally to DIO mice as described in the Example 48. The high fat diet (HFD) mice were divided into multiple treatment groups with a total of 10 animals per group. The mice were treated with one of the following: Composition 1 (1300 mg/kg/day), Composition 2 (1300 mg/kg/day), Composition 3 (1700 mg/kg/day), or Composition 9 (1700 mg/kg/day). Control groups included a normal diet group given vehicle only (ND, negative control), a high fat diet group given vehicle only (HFD, negative control), an orlistat group (ORI, 40 mg/kg, 2 times/day, positive control), and a sibutramine group (10 mg/kg, 1 time/day, positive control). Body weight and feed intake were measured daily for 2 weeks after treatment and then twice a week until the end of the 7 week study. At week 2 and week 7 after treatment, mice were fasted for 16 hours and then five animals were examined to measure plasma concentrations of leptin and ghrelin. Leptin and ghrelin levels were measured by using commercial ELISA kits specific for leptin or ghrelin (Millipore Co., Billerica, MA) according to the manufacturer's instructions. Measurements were taken using a microplate reader (Victor™ X3, PerkinElmer Inc., USA) and analyzed with PerkinElmer 2030 workstation computer software.
# leptin = assay: Plasma leptin level in DIO mice (ELISA); format: in vivo
# Method: as §1
# CCK peptide = CCK peptide levels in DIO mice (CCK ELISA); format: in vivo; conditions: mice on high fat diet; after 7 weeks of administering; % ± SD
# Method: Therefore, the effect on CCK peptide levels in mice from treatment with Composition 2 (Magnolia:Morus:Mutamba), produced according to the Example 42, or Composition 3 (Morus:Rosemary:Yerba Mate), produced according to the Example 39, was examined to determine the extent to which weight gain and/or appetite were affected through this peptide hormone pathway. Briefly, CCK peptide levels were measured after 7 weeks of administering Compositions […] and 3 to mice on a high fat diet as described in Example 48. Negative controls include mice on a normal diet (NC) and mice on a high fat diet (HFD), each group administered vehicle only. The positive controls were orlistat and sibutrimine. CCK levels were detected using a CCK ELISA assay kit according to the manufacturer's instructions (Abnova, Taipei City, Tiawan). Measurements were performed using microplate reader Victor™ X3 (PerkinElmer Inc., Waltham, MA) and computer software on the PerkinElmer 2030 workstation.
# [2] = DIO rats, ORI 80 mg/kg, 55 day study, mean
# [3] = DIO rats, blood at end of study, ORI 80 mg/kg, mean
# [4] = DIO rats, liver pathology, ORI 80 mg/kg, mean
# [5] = DIO rats, liver pathology score, ORI group, mean
# [6] = DIO mice plasma, 2-week treatment
# [7] = DIO mice plasma, 7-week treatment
smiles,measurement,setting,value
"CCCCCCCCCCC[C@@H](C[C@@H]1OC(=O)[C@H]1CCCCCC)OC(=O)[C@H](CC(C)C)NC=O [ORI, orlistat]",Body Weight Gain,[1]; [2],1.22 g/day
same,Food Intake,[1]; [2],25.71 g/day
same,Food Efficiency Ratio (FER),"[1]; DIO rats, ORI 80 mg/kg, 55 day study, body weight gain/food intake",0.05
same,Weight Gain,"[1]; DIO rats, ORI 80 mg/kg, day 3, mean",2.80
same,Weight Gain,"[1]; DIO rats, ORI 80 mg/kg, day 7, mean",1.04
same,Weight Gain,"[1]; DIO rats, ORI 80 mg/kg, day 10, mean",0.82
same,Weight Gain,"[1]; DIO rats, ORI 80 mg/kg, day 14, mean",3.40
same,Weight Gain,"[1]; DIO rats, ORI 80 mg/kg, day 17, mean",3.34
same,Weight Gain,"[1]; DIO rats, ORI 80 mg/kg, day 21, mean",15.89
same,Weight Gain,"[1]; DIO rats, ORI 80 mg/kg, day 24, mean",19.89
same,Weight Gain,"[1]; DIO rats, ORI 80 mg/kg, day 28, mean",28.19
same,Weight Gain,"[1]; DIO rats, ORI 80 mg/kg, day 31, mean",33.33
same,Weight Gain,"[1]; DIO rats, ORI 80 mg/kg, day 35, mean",38.43
same,Weight Gain,"[1]; DIO rats, ORI 80 mg/kg, day 37, mean",43.95
same,Weight Gain,"[1]; DIO rats, ORI 80 mg/kg, day 42, mean",49.06
same,Weight Gain,"[1]; DIO rats, ORI 80 mg/kg, day 45, mean",59.88
same,Weight Gain,"[1]; DIO rats, ORI 80 mg/kg, day 49, mean",63.68
same,Weight Gain,"[1]; DIO rats, ORI 80 mg/kg, day 52, mean",71.12
same,Weight Gain,"[1]; DIO rats, ORI 80 mg/kg, day 55, mean",68.11
same,Epididymal fatty tissue weight,"[1]; DIO rats, ORI 80 mg/kg, mean",17.87
same,Perirenal fatty tissue weight,"[1]; DIO rats, ORI 80 mg/kg, mean",6.11
same,Retroperitoneal fatty tissue weight,"[1]; DIO rats, ORI 80 mg/kg, mean",19.21
same,Total Fat,"[1]; DIO rats, ORI 80 mg/kg, sum of epididymal, retroperitoneal and perirenal fat",43.19
same,ALP,[1]; [3],480.16 U/L
same,ALT,[1]; [3],35.65 U/L
same,AST,[1]; [3],146.39 U/L
same,LDL-C,[1]; [3],10.63 mg/dL
same,T-chol,[1]; [3],110.13 mg/dL
same,TG,[1]; [3],216.38 mg/dL
same,Hepatocellular ballooning (0-2),[1]; [4],0.675 and 0.625
same,Lobular Inflammation (0-3),[1]; [4],1.500
same,NASH (sum),[1]; [4],2.875
same,Steatosis (0-3),[1]; [4],0.750
same,"Epididymal Fat, absolute weight","[1]; DIO rats, ORI group, mean",17.87
same,FER (Food efficiency ratio),"[1]; DIO rats, ORI group, mean",0.05
same,Food Intake,"[1]; DIO rats, ORI group, mean",25.71 g/day
same,LDL-C,"[1]; DIO rats, ORI group, mean",10.63 mg/dL
same,"Perirenal Fat, absolute weight","[1]; DIO rats, ORI group, mean",6.11
same,"Retroperitoneal Fat, absolute weight","[1]; DIO rats, ORI group, mean",19.21
same,T-chol,"[1]; DIO rats, ORI group, mean",110.13 mg/dL
same,TG,"[1]; DIO rats, ORI group, mean",216.38 mg/dL
same,Total Fat,"[1]; DIO rats, ORI group, mean",43.19
same,Weight Gain,"[1]; DIO rats, ORI group, mean",1.22 g/day
same,Weight Gain,"[1]; DIO rats, day 3, ORI group, mean",2.80
same,Weight Gain,"[1]; DIO rats, day 7, ORI group, mean",1.04
same,Weight Gain,"[1]; DIO rats, day 10, ORI group, mean",0.82
same,Weight Gain,"[1]; DIO rats, day 14, ORI group, mean",3.40
same,Weight Gain,"[1]; DIO rats, day 17, ORI group, mean",3.34
same,Weight Gain,"[1]; DIO rats, day 21, ORI group, mean",15.89
same,Weight Gain,"[1]; DIO rats, day 24, ORI group, mean",19.89
same,Weight Gain,"[1]; DIO rats, day 28, ORI group, mean",28.19
same,Weight Gain,"[1]; DIO rats, day 31, ORI group, mean",33.33
same,Weight Gain,"[1]; DIO rats, day 35, ORI group, mean",38.43
same,Weight Gain,"[1]; DIO rats, day 37, ORI group, mean",43.95
same,Weight Gain,"[1]; DIO rats, day 42, ORI group, mean",49.06
same,Weight Gain,"[1]; DIO rats, day 45, ORI group, mean",59.88
same,Weight Gain,"[1]; DIO rats, day 49, ORI group, mean",63.68
same,Weight Gain,"[1]; DIO rats, day 52, ORI group, mean",71.12
same,Weight Gain,"[1]; DIO rats, day 55, ORI group, mean",68.11
same,Hepatocellular ballooning (0-2),[1]; [5],0.625
same,Lobular Inflammation (0-3),[1]; [5],1.500
same,NSAH (sum),[1]; [5],2.875
same,Steatosis (0-3),[1]; [5],0.750
same,blood biochemistry parameters vs HFD group,"[1]; orlistat 80 mg/kg, 2 times/day",no statistically significant decreases in any of the measured blood components; also recorded: did not show any statistically significant decreases in any of the measured blood chemistry components
same,body weight gain vs HFD group,"[1]; orlistat 80 mg/kg, 2 times/day",statistically significant decreases in body weight gain on day 7 through to day 55
same,liver pathology (NASH score) vs HFD group,"[1]; orlistat 80 mg/kg, 2 times/day","statistically significant decreases in Steatosis, Lobular Inflammation, Hepatocellular ballooning and NASH score"
same,organ and fat pad weights vs HFD group,"[1]; orlistat 80 mg/kg, 2 times/day","statistically significant decreases in all categories of fat measurement; also recorded: statistically significant decreases in Epididymal Fat, Retroperitoneal Fat, Perirenal Fat and Total Fat"
same,"weight gain per day, food intake per day, food efficiency ratio (FER) vs HFD group","[1]; orlistat 80 mg/kg, 2 times/day","statistically lower values than the HFD group for average Body Weight Gain per day, average Food Intake per day and Food Efficiency Ratio"
same,Active Ghrelin (pg/ml) 2-week,ghrelin; [6],1316.4 pg/mL
same,Active Ghrelin (pg/ml) 7-week,ghrelin; [7],1353.7 pg/mL
same,active ghrelin level vs HFD group,"ghrelin; week 2 and week 7, orlistat 40 mg/kg 2 times/day, sibutramine 10 mg/kg 1 time/day",no effect on active ghrelin levels at either week 2 or week 7
same,Leptin (ng/ml) 2-week,leptin; [6],11.6 ± 0.06 ng/mL
same,Leptin (ng/ml) 7-week,leptin; [7],19.0 ± 0.24 ng/mL
same,plasma leptin level vs HFD group,"leptin; week 2 and week 7, Composition 2 1300 mg/kg/day, orlistat 40 mg/kg 2 times/day, sibutramine 10 mg/kg 1 time/day",significantly reduced leptin level after 2 weeks of treatment
same,% CCK binding,CCK peptide,72.5 ± 3.4%
